Assay results from ChEMBL document CHEMBL1909046, “DrugMatrix in vitro pharmacology data”.

Experiments:
[1] = molecular target: Delta-type opioid receptor (Homo sapiens, UniProt P41143); type: cell membranes, HEK293, Membrane; conditions: hek293; note: in other assays of this panel Not Active means under 50% inhibition at 10 µM
[2] = DRUGMATRIX: GABAA, Chloride Channel, TBOB radioligand binding (ligand: [3H] TBOB); type: cell membranes, Rattus norvegicus, Wistar, Cerebral cortex, Membrane; conditions: Not Active = under 50% inhibition at 10 µM
Vasopressin V1a receptor = Vasopressin V1a receptor (Homo sapiens, UniProt P37288); type: cell membranes, Membrane; conditions: hek293; note: in other assays of this panel Not Active means under 50% inhibition at 10 µM
Chain of Vasopressin V1a receptor (P37288 whole entry): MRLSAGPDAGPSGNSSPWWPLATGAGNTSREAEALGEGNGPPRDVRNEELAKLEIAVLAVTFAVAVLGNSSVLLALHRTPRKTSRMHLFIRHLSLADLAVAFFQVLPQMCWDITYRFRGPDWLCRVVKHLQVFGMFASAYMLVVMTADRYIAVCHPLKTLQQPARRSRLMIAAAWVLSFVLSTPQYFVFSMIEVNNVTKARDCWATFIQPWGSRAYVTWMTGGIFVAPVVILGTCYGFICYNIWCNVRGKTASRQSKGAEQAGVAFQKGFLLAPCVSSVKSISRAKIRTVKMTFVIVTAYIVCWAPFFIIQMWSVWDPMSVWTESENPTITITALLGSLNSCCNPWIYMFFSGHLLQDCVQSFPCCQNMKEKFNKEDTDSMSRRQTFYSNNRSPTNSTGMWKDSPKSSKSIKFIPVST

[3] = molecular target: 5-hydroxytryptamine receptor 2B (Homo sapiens, UniProt P41595); type: cell membranes, CHO-K1, Membrane; conditions: cho-k1; note: in other assays of this panel Not Active means under 50% inhibition at 10 µM
Chain of 5-hydroxytryptamine receptor 2B (P41595 whole entry): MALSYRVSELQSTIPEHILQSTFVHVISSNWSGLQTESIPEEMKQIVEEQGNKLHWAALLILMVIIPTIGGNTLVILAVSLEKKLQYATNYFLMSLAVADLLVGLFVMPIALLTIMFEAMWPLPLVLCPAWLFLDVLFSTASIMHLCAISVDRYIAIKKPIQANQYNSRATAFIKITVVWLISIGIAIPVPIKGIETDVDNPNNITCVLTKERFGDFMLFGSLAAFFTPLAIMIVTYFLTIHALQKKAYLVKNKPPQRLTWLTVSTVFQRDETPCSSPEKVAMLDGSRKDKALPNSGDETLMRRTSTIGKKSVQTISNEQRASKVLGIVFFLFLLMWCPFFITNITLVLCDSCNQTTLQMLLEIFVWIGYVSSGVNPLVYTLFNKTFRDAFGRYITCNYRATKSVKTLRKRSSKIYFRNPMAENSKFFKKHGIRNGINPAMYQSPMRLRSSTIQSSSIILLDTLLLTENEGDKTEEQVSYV

Cannabinoid receptor 1 = Cannabinoid receptor 1 (Homo sapiens, UniProt P21554); type: cell membranes, Membrane; conditions: chem-1; note: in other assays of this panel Not Active means under 50% inhibition at 10 µM
Chain of Cannabinoid receptor 1 (P21554 whole entry): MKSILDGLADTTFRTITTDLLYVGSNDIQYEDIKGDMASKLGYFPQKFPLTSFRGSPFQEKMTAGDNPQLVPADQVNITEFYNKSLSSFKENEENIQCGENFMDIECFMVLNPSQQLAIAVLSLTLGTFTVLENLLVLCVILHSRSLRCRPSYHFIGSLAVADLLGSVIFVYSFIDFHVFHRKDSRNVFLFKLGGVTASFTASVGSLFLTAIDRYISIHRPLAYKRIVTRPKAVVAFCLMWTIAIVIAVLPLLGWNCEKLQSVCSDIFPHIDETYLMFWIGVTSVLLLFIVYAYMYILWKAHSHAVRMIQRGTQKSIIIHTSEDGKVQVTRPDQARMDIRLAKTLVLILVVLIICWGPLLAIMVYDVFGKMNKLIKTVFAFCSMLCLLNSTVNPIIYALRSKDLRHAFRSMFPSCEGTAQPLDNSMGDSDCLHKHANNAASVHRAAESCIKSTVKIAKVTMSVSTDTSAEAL

[4] = DRUGMATRIX: beta-Lactamase enzyme inhibition (substrate: Nitrocefin); design: species or system Bacillus cereus; conditions: Not Active = under 50% inhibition at 10 µM
[5] = molecular target: T1, Muscarinic acetylcholine receptor M5 (Homo sapiens, UniProt P08912); type: cell membranes, Membrane; conditions: cho-k1; note: in other assays of this panel Not Active means under 50% inhibition at 10 µM
T1 sequence (P08912 whole entry): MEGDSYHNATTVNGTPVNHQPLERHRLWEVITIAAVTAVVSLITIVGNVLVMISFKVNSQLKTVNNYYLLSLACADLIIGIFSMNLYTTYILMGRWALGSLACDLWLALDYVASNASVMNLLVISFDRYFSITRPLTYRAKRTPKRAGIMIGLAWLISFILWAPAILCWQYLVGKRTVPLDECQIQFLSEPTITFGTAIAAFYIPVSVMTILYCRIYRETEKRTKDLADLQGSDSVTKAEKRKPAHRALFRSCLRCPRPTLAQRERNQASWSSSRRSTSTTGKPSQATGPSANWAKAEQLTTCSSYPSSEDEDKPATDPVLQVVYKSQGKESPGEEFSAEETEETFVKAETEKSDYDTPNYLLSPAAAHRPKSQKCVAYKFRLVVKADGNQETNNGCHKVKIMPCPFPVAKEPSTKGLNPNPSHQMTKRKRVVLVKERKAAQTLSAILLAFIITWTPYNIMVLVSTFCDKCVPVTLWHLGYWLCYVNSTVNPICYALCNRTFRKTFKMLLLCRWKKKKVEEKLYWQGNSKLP

Chain of Delta-type opioid receptor (P41143 whole entry): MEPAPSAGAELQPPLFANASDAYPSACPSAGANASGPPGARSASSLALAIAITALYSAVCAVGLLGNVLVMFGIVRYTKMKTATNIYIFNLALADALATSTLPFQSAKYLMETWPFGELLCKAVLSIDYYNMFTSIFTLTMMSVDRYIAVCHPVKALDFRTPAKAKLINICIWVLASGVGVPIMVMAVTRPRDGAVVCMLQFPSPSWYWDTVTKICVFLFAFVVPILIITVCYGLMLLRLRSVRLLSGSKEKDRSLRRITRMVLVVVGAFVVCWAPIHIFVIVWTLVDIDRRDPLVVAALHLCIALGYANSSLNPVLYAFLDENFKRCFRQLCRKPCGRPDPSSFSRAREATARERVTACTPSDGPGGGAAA

CCC[C@@H]1C[C@@H](C(=O)N[C@@H]([C@H]2O[C@H](SC)[C@H](O)[C@@H](O)[C@H]2O)[C@H](C)Cl)N(C)C1 [CLINDAMYCIN]
Not Active: IC50 [1] | IC50 [2] | Ki [2] | IC50 (Vasopressin V1a receptor) | IC50 [3] | IC50 (Cannabinoid receptor 1) | IC50 [4] | Ki [4] | IC50 [5]

C#C[C@]1(O)CC[C@H]2[C@@H]3CCC4=Cc5oncc5C[C@]4(C)[C@H]3CC[C@@]21C [DANAZOL]
Not Active: IC50 [1] | IC50 [2] | Ki [2] | IC50 (Vasopressin V1a receptor) | IC50 [3] | IC50 (Cannabinoid receptor 1) | IC50 [4] | Ki [4] | IC50 [5]

CN1C(=O)CN=C(c2ccccc2)c2cc(Cl)ccc21 [DIAZEPAM]
Not Active: IC50 [1] | IC50 [2] | Ki [2] | IC50 (Vasopressin V1a receptor) | IC50 [3] | IC50 (Cannabinoid receptor 1) | IC50 [4] | Ki [4] | IC50 [5]

CCOC(=O)C1=C(C)NC(C)=C(C(=O)OC)C1c1cccc(Cl)c1Cl (configuration not stated) [FELODIPINE]
Not Active: IC50 [1] | IC50 [2] | Ki [2] | IC50 (Vasopressin V1a receptor) | IC50 [3] | IC50 (Cannabinoid receptor 1) | IC50 [4] | Ki [4] | IC50 [5]

Cc1cn[nH]c1 [FOMEPIZOLE]
Not Active: IC50 [1] | IC50 [2] | Ki [2] | IC50 (Vasopressin V1a receptor) | IC50 [3] | IC50 (Cannabinoid receptor 1) | IC50 [4] | Ki [4] | IC50 [5]

Cc1cnc(C(=O)NCCc2ccc(S(=O)(=O)NC(=O)NC3CCCCC3)cc2)cn1 [GLIPIZIDE]
Not Active: IC50 [1] | IC50 [2] | Ki [2] | IC50 (Vasopressin V1a receptor) | IC50 [3] | IC50 (Cannabinoid receptor 1) | IC50 [4] | Ki [4] | IC50 [5]

COc1ccccc1OCC(O)CO (configuration not stated) [GUAIFENESIN]
Not Active: IC50 [1] | IC50 [2] | Ki [2] | IC50 (Vasopressin V1a receptor) | IC50 [3] | IC50 (Cannabinoid receptor 1) | IC50 [4] | Ki [4] | IC50 [5]

C/C=C\c1ccc(O)c(OC)c1 [ISOEUGENOL]
Not Active: IC50 [1] | IC50 [2] | Ki [2] | IC50 (Vasopressin V1a receptor) | IC50 [3] | IC50 (Cannabinoid receptor 1) | IC50 [4] | Ki [4] | IC50 [5]

CC[C@H](C)C(=O)O[C@H]1C[C@@H](C)C=C2C=C[C@H](C)[C@H](CC[C@@H]3C[C@@H](O)CC(=O)O3)[C@H]21 [LOVASTATIN]
Not Active: IC50 [1] | IC50 [2] | Ki [2] | IC50 (Vasopressin V1a receptor) | IC50 [3] | IC50 (Cannabinoid receptor 1) | IC50 [4] | Ki [4] | IC50 [5]

CC(=O)O[C@]1(C(C)=O)CC[C@H]2[C@@H]3C=C(C)C4=CC(=O)CC[C@]4(C)[C@H]3CC[C@@]21C [MEGESTROL ACETATE]
Not Active: IC50 [1] | IC50 [2] | Ki [2] | IC50 (Vasopressin V1a receptor) | IC50 [3] | IC50 (Cannabinoid receptor 1) | IC50 [4] | Ki [4] | IC50 [5]

CN(Cc1cnc2nc(N)nc(N)c2n1)c1ccc(C(=O)N[C@@H](CCC(=O)O)C(=O)O)cc1 [METHOTREXATE]
Not Active: IC50 [1] | IC50 [2] | Ki [2] | IC50 (Vasopressin V1a receptor) | IC50 [3] | IC50 (Cannabinoid receptor 1) | IC50 [4] | Ki [4] | IC50 [5]

O=C(O)c1cccnc1 [NIACIN]
Not Active: IC50 [1] | IC50 [2] | Ki [2] | IC50 (Vasopressin V1a receptor) | IC50 [3] | IC50 (Cannabinoid receptor 1) | IC50 [4] | Ki [4] | IC50 [5]

OCCN1CCN(CCCN2c3ccccc3Sc3ccc(Cl)cc32)CC1 [PERPHENAZINE]
Not Active: IC50 [1] | IC50 [2] | Ki [2] | IC50 (Vasopressin V1a receptor) | IC50 [3] | IC50 (Cannabinoid receptor 1) | IC50 [4] | Ki [4] | IC50 [5]
